Experimental data as given in patent publication US5459150A, “Indole derivatives which inhibit leukotriene biosynthesis” (Abbott Laboratories, priority 1993, dated 1995).
Counter-ions that a name gives are not always drawn.

Key:
[1] = system: LTB4 biosynthesis in human whole blood; assay: Inhibition of LTB4 biosynthesis in human whole blood (calcium ionophore A23187-induced); assay type: cell-based; details: human heparinized whole blood, A23187, 30 min at 37° C.
Experimental: (§1) Inhibition of leukotriene biosynthesis by representative compounds of the present invention was evaluated in assays involving calcium ionophore-induced LTB4 biosynthesis expressed by human polymorphonuclear leukocytes (PMNL) or human whole blood. Human PMNL were isolated from heparinized (20 USP units/mL) venous blood using Ficoll-Hypaque Mono-Poly Resolving Medium. Human PMNL suspensions (5×10^6 cells/250 μL) were preincubated with test compounds or vehicle for 15 min at 37° C. followed by calcium ionophore A23187 challenge (final concentration of 8.3 μM) and the reaction terminated after 10 rain by adding two volumes of methanol containing prostaglandin B2 as an internal recovery standard. The methanol extracts were analyzed for LTB4 content by HPLC or radioimmunoassay.
The assay using human heparinized whole blood was incubated for 30 minutes at 37° C. after adding […] of ionophore A23187. The plasma layer was obtained by centrifugation and deproteinized by the addition of four volumes of methanol. The methanol extract was analyzed for LTB4 by HPLC or radioimmunoassay.

[2] = system: LTB4 biosynthesis in human polymorphonuclear leukocytes (PMNL); assay: Inhibition of LTB4 biosynthesis in human PMNL (calcium ionophore A23187-induced); assay type: cell-based; details: for IC50: A23187 8.3 μM, 15 min preincubation; for Human PMNL, inhibition of LTB4 biosynthesis, % @ 1.6: @ 1.6 (μM)
Experimental: as §1

leukotriene biosynthesis = assay: Inhibition of leukotriene biosynthesis in vivo, rat peritoneal anaphylaxis model; details: one hour prior to antigen challenge
Experimental: Inhibition of the biosynthesis of leukotrienes in vivo after oral administration of compound was determined using a rat peritoneal anaphylaxis model in a similar manner as that described by Young and coworkers (Young, P. R.; Dyer, R. D.; Carter, G. W. Fed. Proc., Fed. Am. Soc. Exp. Biol. 1985, 44, 1185). In this model rats were injected intraperitoneally (ip) with rabbit antibody to bovine serum albumin (BSA) and three hours later injected ip with BSA to induce an antigen-antibody response. Rats were sacrificed 15 minutes after this challenge and the peritoneal fluids were collected and analyzed for leukotriene levels. Test compounds were administered by garage one hour prior to the antigen challenge. Percent inhibition values were determined by comparing the treatment group to the mean of the control group. Compounds of this invention are orally effective in preventing the in vivo bio-synthesis of leukotrienes as illustrated for representative examples shown in Table 2.

| Structure (SMILES) | IC50 ([1]; Homo sapiens, 0.5 h) [nM] | IC50 [2] [nM] | further results |
| --- | --- | --- | --- |
| CC(C)c1ccc2c(c1)c(SC(C)(C)C)c(CC(C)(C)CN(O)C(N)=O)n2Cc1ccc(Cl)cc1 [Example 3, N-hydroxy-N-2,2-dimethyl-3-[(1-(4-chlorophenylmethyl)-3-(1,1-dimethylethylthio)-5-(1-methylethyl))indol-2-yl]propyl urea] | 1600 | 170 | Percent Leukotriene inhibition at 100 μmol/kg oral dose (leukotriene biosynthesis): 68% |
| CC(C)c1ccc2c(c1)c(SC(C)(C)C)c(CC(C)(C)CNCCCO)n2Cc1ccc(Cl)cc1 [Example 7, 1-(4-chlorophenylmethyl)-2-[2,2-dimethyl-3-((3-hydroxypropyl)amino)propyl]-3-(1,1-dimethylethylthio)-5-(1-methylethyl)indole] | 6900 | 4200 |  |
| CCOC(=O)CCNC(=O)NC(C)(C)Cc1c(SC(C)(C)C)c2cc(C(C)C)ccc2n1Cc1ccc(Cl)cc1 [Example 9] | 5600 |  | Human PMNL, inhibition of LTB4 biosynthesis, % @ 1.6 [2]: 77% |
| CC(C)c1ccc2c(c1)c(SC(C)(C)C)c(CC(C)(C)C(=O)NCCC(=O)O)n2Cc1ccc(Cl)cc1 [Example 6.2] | 1400 | 310 |  |
| CC(C)c1ccc2c(c1)c(SC(C)(C)C)c(CC(C)(C)C=NOCC(=O)O)n2Cc1ccc(Cl)cc1 [Example 20] | 680 |  | Percent Leukotriene inhibition at 100 μmol/kg oral dose (leukotriene biosynthesis): 99% |
| CC(C)c1ccc2c(c1)c(SC(C)(C)C)c(CC(C)(C)C=NNC(=N)N)n2Cc1ccc(Cl)cc1 [Example 12, 1-(4-chlorophenylmethyl)-3-(1,1-dimethylethylthio)-2-[3-(2,2-dimethyl-1-guanidinylimino)propyl]-(1-methylethyl)indole] | 1300 |  | Human PMNL, inhibition of LTB4 biosynthesis, % @ 3.1 ([2]; @ 3.1 (μM)): 100% |
| CC(C)c1ccc2c(c1)c(SC(C)(C)C)c(CC(C)(C)NC(=O)NCCC(=O)O)n2Cc1ccc(Cl)cc1 [Example 13, 3-[3-(1-(4-chlorophenylmethyl)-3-(1,1dimethylethylthio)-5-(1-methylethyl)indol-2-yl)-2-aminocarbonylamino-2-methylpropyl]propanoic acid, sodium salt] |  |  | IC50 ([1]; sodium salt): 3000 nM |
| CCOC(=O)C(C)(C)Cc1c(C(=O)CCNC(=O)N(C)O)c2cc(C(C)C)ccc2n1Cc1ccc(Cl)cc1 [Example 11, N'-hydroxy-N'-methyl-N-'[1-(4-chlorophenylmethyl)-5-(1-methylethyl)-2-((2-methyl-2-ethoxycarbonyl)propyl)indol-2-yl]-3-oxopropylurea] |  | 1500 | IC50 ([1]; 0.5 h): 6900 nM |
| CC(C)c1ccc2c(c1)c(SC(C)(C)C)c([C@@H]1C[C@H]1CNC(N)=O)n2Cc1ccc(Cl)cc1 (relative stereo) [Example 23, N-[trans-2-(1-(4-chlorophenylmethyl)-3-(1,1-dimethylethylthio)-5-(1-methylethyl)indol-2-yl)cyclopropyl]methyl urea] | 2700 | 400 |  |
| CC(C)c1ccc2c(c1)c(SC(C)(C)C)c(CC(C)(C)C=NO)n2Cc1ccc(Cl)cc1 [Example 2, 2,2-dimethyl-3-[1-(4-chlorophenylmethyl)-3-(1,1-dimethylethylthio)-5-(1-methylethyl)indol-2-yl]propionaldehyde oxime] | 2200 | 270 | Percent Leukotriene inhibition at 100 μmol/kg oral dose (leukotriene biosynthesis): 46% |

Further lines, with some results ahead:

| IC50 ([1]; Homo sapiens, 0.5 h) [nM] | IC50 [2] [nM] | Structure (SMILES) | further results |
| --- | --- | --- | --- |
| 5500 |  | CC(C)c1ccc2c(c1)c(SC(C)(C)C)c(CC(C)(C)C(=O)O)n2Cc1cccs1 [Example 16] |  |
| 5200 | 400 | CC(C)c1ccc2c(c1)c(SC(C)(C)C)c(CC(C)(C)NC(N)=O)n2Cc1ccc(Cl)cc1 [Example 8, N-2-[2-methyl-3-(1-(4-chlorophenylmethyl)-3-(1,1-dimethylethylthio)-5-(1-methylethyl)indol-2-yl)]propyl urea] |  |
| 2500 |  | CC(C)c1ccc2c(c1)c(SC(C)(C)C)c(CC(C)(C)NC(=O)NCCC(=O)O)n2Cc1ccc(Cl)cc1 [Example 10] | Human PMNL, inhibition of LTB4 biosynthesis, % @ 1.6 [2]: 70% |
| 2100 |  | CC(=O)NCC(C)(C)Cc1c(SC(C)(C)C)c2cc(C(C)C)ccc2n1Cc1ccc(Cl)cc1 [Example 22] |  |
| 6700 | 570 | CC(C)c1ccc2c(c1)c(SC(C)(C)C)c(CCNC(=O)N(C)O)n2Cc1ccc(Cl)cc1 [Example 4, N'-hydroxy-N'methyl-N-2-[(1-(4-chlorophenylmethyl)-3-(1,1-dimethylethylthio)-5-(1-methylethyl))indol-2-yl]ethyl urea] |  |
| 1200 | 150 | CC(C)c1ccc2c(c1)c(SC(C)(C)C)c(CC(C)(C)C(=O)NCCNC(=O)N(C)O)n2Cc1ccc(Cl)cc1 [Example 6, N'-hydroxy-N'-methyl-N-2-[3-(1-(4-chlorophenylmethyl)-3-(1,1-dimethylethylthio)-5-(1-methylethyl)indol-2-yl)-2,2-dimethylpropionylamino]ethyl urea] | Percent Leukotriene inhibition at 100 μmol/kg oral dose (leukotriene biosynthesis): 86% |
| 710 | 180 | CC(C)c1ccc2c(c1)c(SC(C)(C)C)c(CC(C)(C)CNC(N)=O)n2Cc1ccc(Cl)cc1 [Example 5, N-2,2-dimethyl-3-[(1-(4-chlorophenylmethyl)-3-(1,1-dimethylethyl-thio)-5-(1-methylethyl))indol-2-yl]propyl urea] | Percent Leukotriene inhibition at 100 μmol/kg oral dose (leukotriene biosynthesis): 86% |
| 1100 |  | CC(C)c1ccc2c(c1)c(SC(C)(C)C)c(CC(C)(C)CN)n2Cc1ccc(Cl)cc1 [Example 21] |  |
| 2500 |  | CC(C)c1ccc2c(c1)c(SC(C)(C)C)c([C@@H]1C[C@H]1CN(O)C(N)=O)n2Cc1ccc(Cl)cc1 (relative stereo) [Example 14, N-hydroxy-N-[trans-2-(1-(4-chlorophenylmethyl)-3-(1,1-dimethylethylthio)-5-(1-methylethyl)indol-2-yl)cyclopropyl]methylurea] | Human PMNL, inhibition of LTB4 biosynthesis, % @ 0.78 ([2]; @ 0.78 (μM)): 40% |
| 900 | 90 | CC(C)c1ccc2c(c1)c(SC(C)(C)C)c(CC(C)(C)C(=O)O)n2Cc1ccncc1 [Example 15, 3-[3-(1,1-dimethylethylthio)-5-(1-methylethyl)-1-(4-pyridinylmethyl)indol-2-yl]-2,2-dimethylpropanoic acid] |  |
| 1300 | 150 | CC(C)c1ccc2c(c1)c(SC(C)(C)C)c(CC(C)(C)NC(=O)N(C)O)n2Cc1ccc(Cl)cc1 [Example 1] |  |
